Measurements published in PubChem BioAssay AID248 (DTP/NCI, 2004).
Where “and” joins values, the source holds several entries; their conditions need not be identical. Equal values may be shown once. Inconclusive results and toxic doses are left out. Cut-off read from the data, not from the text of the source: active = T/C of 150% or more; inactive = T/C below 125%.

Tested on: L1210 leukemia ip in BDF1 mice, survival T/C
Experiment: NCI In Vivo Anticancer Drug Screen. Data for tumor model L1210 Leukemia (intraperitoneal) in B6D2F1 (BDF1) mice
Settings: endpoint: mean survival time, higher = longer survival
Procedure, shortened: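 Ratio derived from survival: compound-dosed mice over vehicle-dosed mice, all bearing a transplantable tumor.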

[1] = dose: 100.0 mg/kg/injection, schedule: Q01DX001 (ip), vehicle: saline with Tween-80
[2] = dose: 200.0 mg/kg/injection, schedule: Q01DX001 (ip), vehicle: saline with Tween-80
[3] = dose: 400.0 mg/kg/injection, schedule: Q01DX001 (ip), vehicle: saline with Tween-80
[4] = dose: 100.0 mg/kg/injection, schedule: Q04DX003 (ip), vehicle: saline with Tween-80
[5] = dose: 200.0 mg/kg/injection, schedule: Q04DX003 (ip), vehicle: saline with Tween-80
[6] = dose: 400.0 mg/kg/injection, schedule: Q04DX003 (ip), vehicle: saline with Tween-80
[7] = dose: 50.0 mg/kg/injection, schedule: Q01DX009 (ip), vehicle: saline with Tween-80
[8] = dose: 100.0 mg/kg/injection, schedule: Q01DX009 (ip), vehicle: saline with Tween-80
[9] = dose: 200.0 mg/kg/injection, schedule: Q01DX009 (ip), vehicle: saline with Tween-80
[10] = dose: 100.0 mg/kg/injection, schedule: Q04DX003 (ip), vehicle: saline
[11] = dose: 200.0 mg/kg/injection, schedule: Q04DX003 (ip), vehicle: saline
[12] = dose: 400.0 mg/kg/injection, schedule: Q04DX003 (ip), vehicle: saline
[13] = dose: 400.0 mg/kg/injection, schedule: Q01DX009 (ip), vehicle: saline with Tween-80
[14] = dose: 100.0 mg/kg/injection, schedule: Q04DX003 (ip), vehicle: Klucel (hydroxypropylcellulose) (HPC)
[15] = dose: 200.0 mg/kg/injection, schedule: Q04DX003 (ip), vehicle: Klucel (hydroxypropylcellulose) (HPC)
[16] = dose: 400.0 mg/kg/injection, schedule: Q04DX003 (ip), vehicle: Klucel (hydroxypropylcellulose) (HPC)
[17] = dose: 200.0 mg/kg/injection, schedule: Q01DX001 (ip), vehicle: carboxymethylcellulose (CMC)
[18] = dose: 400.0 mg/kg/injection, schedule: Q01DX001 (ip), vehicle: carboxymethylcellulose (CMC)

Measured: T/C

O=c1oc(-c2ccccc2)c(-c2ccccc2)c(-c2ccccc2)c1-c1ccccc1
inactive: [1] 103 % of control | [2] 91 % of control | [3] 91 % of control

Brc1cccc([Si](c2ccccc2)(c2ccccc2)c2cccc(Br)c2)c1
inactive: [4] 98 % of control | [5] 98 % of control | [6] 95 % of control

CCCCCCCCCCCCN=C(N)C(N)=NCCCCCCCCCCCC
inactive: dose: 100.0 mg/kg/injection, schedule: Q04DX002 (ip), vehicle: other 108 % of control | dose: 200.0 mg/kg/injection, schedule: Q04DX002 (ip), vehicle: other 96 % of control | dose: 400.0 mg/kg/injection, schedule: Q04DX002 (ip), vehicle: other 87 % of control

CC1CCC(C(C)C)/C(=N/S)C1 (configuration not stated)
inactive: dose: 75.0 mg/kg/injection, schedule: Q04DX003 (ip), vehicle: saline 93 % of control | dose: 150.0 mg/kg/injection, schedule: Q04DX003 (ip), vehicle: saline 96 % of control | dose: 300.0 mg/kg/injection, schedule: Q04DX003 (ip), vehicle: saline 104 % of control

O=C(c1ccccc1)C(Br)C(C(=O)c1ccccc1)c1ccccc1 (configuration not stated)
inactive: [7] 94 % of control | [8] 90 % of control | [9] 86 % of control

Cc1cc(=O)cc(C(=O)O)o1
inactive: dose: 75.0 mg/kg/injection, schedule: Q01DX001 (ip), vehicle: saline 107 % of control | dose: 150.0 mg/kg/injection, schedule: Q01DX001 (ip), vehicle: saline 107 % of control | dose: 300.0 mg/kg/injection, schedule: Q01DX001 (ip), vehicle: saline 109 % of control

CC1(C(=O)O)CCC2(C)CCC3(C)C(=CC(=O)C4C5(C)CCC(OC6OC(C(=O)O)C(O)C(O)C6OC6OC(C(=O)O)C(O)C(O)C6O)C(C)(C)C5CCC43C)C2C1 (configuration not stated)
inactive: dose: 50.0 mg/kg/injection, schedule: Q01DX009 (ip), vehicle: saline 94 % of control | dose: 100.0 mg/kg/injection, schedule: Q01DX009 (ip), vehicle: saline 91 % of control and 107 % of control and 100 % of control | [10] 100 % of control | dose: 200.0 mg/kg/injection, schedule: Q01DX009 (ip), vehicle: saline 91 % of control and 90 % of control and 94 % of control | [11] 105 % of control | dose: 400.0 mg/kg/injection, schedule: Q01DX009 (ip), vehicle: saline 98 % of control and 93 % of control | [12] 103 % of control

CCCNC(=O)Nc1ccc(C)c(Cl)c1
inactive: [8] 100 % of control | [4] 108 % of control | [9] 96 % of control | [5] 101 % of control | [13] 100 % of control | [6] 95 % of control

Cc1cc(C)c(NC(=O)NCCCl)cc1C
inactive: [14] 104 % of control | [15] 89 % of control | [16] 93 % of control

CN(C)C(=O)NS(=O)(=O)c1ccc(Cl)cc1
inactive: [14] 91 % of control | [15] 96 % of control | [16] 95 % of control

Cc1cc(Cl)ccc1NC(=O)Oc1cc(C)c(Cl)c(C)c1Cl
inactive: dose: 25.0 mg/kg/injection, schedule: Q01DX009 (ip), vehicle: saline with Tween-80 100 % of control and 90 % of control | [7] 95 % of control and 103 % of control | [1] 94 % of control | [4] 93 % of control and 109 % of control | [2] 97 % of control | [9] 97 % of control and 105 % of control | [5] 97 % of control and 108 % of control | [3] 101 % of control | [13] 90 % of control | [6] 103 % of control and 113 % of control

CC(=O)OCCc1ccc([N+](=O)[O-])cc1
inactive: dose: 100.0 mg/kg/injection, schedule: Q04DX002 (ip), vehicle: saline with Tween-80 97 % of control | dose: 200.0 mg/kg/injection, schedule: Q04DX002 (ip), vehicle: saline with Tween-80 93 % of control | dose: 400.0 mg/kg/injection, schedule: Q04DX002 (ip), vehicle: saline with Tween-80 97 % of control

O=C1CCc2c(Cl)sc(Cl)c21
inactive: [7] 91 % of control | [8] 88 % of control | [9] 96 % of control

O=C1NC(Cc2ccc(O)cc2)C(=O)N1c1ccccc1O (configuration not stated)
inactive: dose: 100.0 mg/kg/injection, schedule: Q01DX001 (ip), vehicle: carboxymethylcellulose (CMC) 96 % of control | [17] 96 % of control | [18] 94 % of control

CC1(C(N)=O)OC12CCCCC2CCC(=O)O (configuration not stated)
inactive: [14] 102 % of control | [15] 93 % of control | [16] 93 % of control

O=C(C(=O)c1cccc(CC(O)(C(F)(F)F)C(F)(F)F)n1)c1cccc(CC(O)(C(F)(F)F)C(F)(F)F)n1
inactive: dose: 100.0 mg/kg/injection, schedule: Q01DX009 (ip), vehicle: Klucel (hydroxypropylcellulose) (HPC) 91 % of control | [10] 95 % of control | dose: 200.0 mg/kg/injection, schedule: Q01DX009 (ip), vehicle: Klucel (hydroxypropylcellulose) (HPC) 96 % of control | [11] 97 % of control | dose: 400.0 mg/kg/injection, schedule: Q01DX009 (ip), vehicle: Klucel (hydroxypropylcellulose) (HPC) 93 % of control | [12] 103 % of control

O=Cc1[nH]c(=S)[nH]c(=O)c1Cc1ccc(Br)cc1
inactive: [1] 106 % of control | [8] 94 % of control | [2] 98 % of control | [9] 91 % of control | [3] 98 % of control | [13] 98 % of control

CC1(N)COP(=O)(Nc2ccccc2)OC1 (configuration not stated)
inactive: dose: 44.4 mg/kg/injection, schedule: Q01DX001 (ip), vehicle: carboxymethylcellulose (CMC) 101 % of control | dose: 66.7 mg/kg/injection, schedule: Q01DX001 (ip), vehicle: carboxymethylcellulose (CMC) 101 % of control | dose: 150.0 mg/kg/injection, schedule: Q01DX001 (ip), vehicle: carboxymethylcellulose (CMC) 107 % of control | [17] 92 % of control | [18] 103 % of control

Cc1ccc(NNS(=O)(=O)c2cccc([N+](=O)[O-])c2)c(Br)c1
inactive: dose: 100.0 mg/kg/injection, schedule: Q01DX001 (ip), vehicle: Klucel (hydroxypropylcellulose) (HPC) 96 % of control | [14] 102 % of control | dose: 200.0 mg/kg/injection, schedule: Q01DX001 (ip), vehicle: Klucel (hydroxypropylcellulose) (HPC) 94 % of control | [15] 96 % of control | dose: 400.0 mg/kg/injection, schedule: Q01DX001 (ip), vehicle: Klucel (hydroxypropylcellulose) (HPC) 100 % of control | [16] 96 % of control

N#Cc1cn(-c2cccc(Cl)c2)c2ncccc12
inactive: dose: 25.0 mg/kg/injection, schedule: Q01DX001 (ip), vehicle: saline 103 % of control | dose: 50.0 mg/kg/injection, schedule: Q01DX001 (ip), vehicle: saline 100 % of control | dose: 100.0 mg/kg/injection, schedule: Q01DX001 (ip), vehicle: saline 103 % of control | dose: 200.0 mg/kg/injection, schedule: Q01DX001 (ip), vehicle: saline 87 % of control | dose: 400.0 mg/kg/injection, schedule: Q01DX001 (ip), vehicle: saline 91 % of control

CCCCCCCCCCCCCC(=O)O
inactive: [14] 92 % of control | [15] 94 % of control | [16] 95 % of control

CC(OC(=O)CBr)C(C)OC(=O)CBr (configuration not stated)
inactive: dose: 50.0 mg/kg/injection, schedule: Q01DX001 (sc), vehicle: carboxymethylcellulose (CMC) 98 % of control | dose: 100.0 mg/kg/injection, schedule: Q01DX001 (sc), vehicle: carboxymethylcellulose (CMC) 98 % of control | dose: 200.0 mg/kg/injection, schedule: Q01DX001 (sc), vehicle: carboxymethylcellulose (CMC) 95 % of control | dose: 400.0 mg/kg/injection, schedule: Q01DX001 (sc), vehicle: carboxymethylcellulose (CMC) 98 % of control

CC[N+](C)(CC)CCCOC(=O)C(c1ccccc1)c1ccccc1
inactive: dose: 6.25 mg/kg/injection, schedule: Q04DX003 (ip), vehicle: saline 94 % of control | dose: 12.5 mg/kg/injection, schedule: Q04DX003 (ip), vehicle: saline 96 % of control | dose: 25.0 mg/kg/injection, schedule: Q04DX003 (ip), vehicle: saline 96 % of control

C/C=C/C=N/Nc1ccccc1
inactive: dose: 50.0 mg/kg/injection, schedule: Q04DX003 (ip), vehicle: other 87 % of control | dose: 100.0 mg/kg/injection, schedule: Q01DX001 (ip), vehicle: other 97 % of control | dose: 100.0 mg/kg/injection, schedule: Q04DX003 (ip), vehicle: other 92 % of control | dose: 200.0 mg/kg/injection, schedule: Q01DX001 (ip), vehicle: other 90 % of control | dose: 200.0 mg/kg/injection, schedule: Q04DX003 (ip), vehicle: other 93 % of control
